{"source": "patent US20040259815A1", "about": "“Anti-proliferative composition” (priority 2001, published 2004)", "tested_on": "human prostate cancer cell line PC3", "test": "Proliferation of PC3 cells after 4 days exposure (BrdU incorporation and WST-1 assays)", "assay_type": "cell-based", "conditions": "PC-3, 96 h, component alone, PC3 cells exposed for 4 days", "procedure": "Stock solutions were prepared as follows: Genistein and silymarin were dissolved in ethanol. Daidzein and equol were dissolved in dimethyl sulfoxide (DMSO). Lycopene was dissolved in 0.02M HCl\nThe PC3 cell line (American Type Culture Collection, Mannassas, USA), a highly resistant prostate cancer cell line originating from a metastasis lesion of bone, was maintained as monolayer cultures in RPMI medium (Gibco, Life technologies BV, Breda, Netherlands) supplemented with 5% FCS (Gibco). The cells were grown mycoplasm free in plastic tissue culture flasks (Falcon, Micronic, Lelystad, Netherlands). Cultures were kept in a 5% CO2 humidified atmosphere, at a temperature of 37° C. Media were replaced every 2 or 3 days, and cells were subcultured at weekly intervals using a 0.05% trypsin and 0.01% EDTA.\nThe PC3 cells were seeded into flat-bottomed 96-well tissue culture treated plates (Falcon, Micronic, Lelystad, Netherlands) at a density of 16000 cells per well. After 24 h incubation, vehicle controls, test components or combinations of the test components were added to the medium (20 μl added to 200 μl medium in well). The components were tested in combination to determine additional or synergistic effects. PC3 cells were exposed for 4 days.\nCell proliferation was quantified by measuring the incorporation of 5-bromo-2′-deoxyuridine (BrdU) during DNA synthesis and by cleavage of tetrazolium salt (WST-1) in viable cells by mitochondrial dehydrogenases. The calorimetric BrdU (immunoassay) and colorimetric WST-1 assay were performed in accordance with the manufacturer's instructions (Roche Diagnostics Mannheim, Germany). Briefly, BrdU-assay: After the exposure period, the cells were treated with BrdU-labeling solution for 3 hours. After labeling, cells were washed with PBS, fixed for 30 minutes and washed again with PBS. After 90 minutes incubation with the anti-BrdU-POD working solution, the cells were washed 3 times. After addition of the substrate, the reaction was stopped with H2SO4. The absorbance was measured at 450 nm with a reference wavelength at 650 nm. WST-1 assay: After the exposure period, the cells were washed with PBS and treated with WST-1 diluted in medium (1:10). After 3 hours incubation, the absorbance was measured at 450 nm with a reference at 595 nm.", "data": [{"smiles": "O=c1c(-c2ccc(O)cc2)coc2cc(O)cc(O)c12", "note": "[Genistein, genistein]", "values": [{"measurement": "inhibition at 27 µg/mL", "setting": "27 μg/ml, read-out: inhibition of proliferation of human prostate cancer cell line PC3 (mean±s.e.)", "value": "20.2 ± 4.6", "unit": "%"}]}, {"smiles": "O=c1c(-c2ccc(O)cc2)coc2cc(O)ccc12", "note": "[daidzein]", "values": [{"measurement": "inhibition at 25 µg/mL", "setting": "25 μg/ml, stated as not significant, read-out: inhibition of growth of the PC3 cells", "value": "10 ± 6", "unit": "%"}]}, {"smiles": "Oc1ccc([C@H]2COc3cc(O)ccc3C2)cc1", "note": "[equol]", "values": [{"measurement": "inhibition at 26 µg/mL", "setting": "26 μg/ml, read-out: inhibition of proliferation of human prostate cancer cell line PC3 (mean±s.e.)", "value": "30.1 ± 4.4", "unit": "%"}]}, {"smiles": "CC(C)=CCC/C(C)=C/C=C/C(C)=C/C=C/C(C)=C/C=C/C=C(C)/C=C/C=C(C)/C=C/C=C(\\C)CCC=C(C)C", "note": "[lycopene]", "values": [{"measurement": "inhibition at 53 µg/mL", "setting": "53 μg/ml, stated as not significant, read-out: inhibition of growth of the PC3 cells", "value": "7.3 ± 2.7", "unit": "%"}]}]}
